What was measured:
[1] = patients / individuals, literature reports; cited from earlier work
MB49 tumor cells = experiment: MB49 epithelial carcinoma in syngeneic hosts; type: in vivo, mouse
Method: In light of the data herein showing that the allogeneic fetus is able to protect itself against attack by the maternal immune system through expression of IDO, and given the expression of IDO in tumors as cited above, it was tested whether a similar mechanism allowed tumor cells to evade immune attack. The MB49 epithelial carcinoma model was chosen for proof of concept because it is an aggressive, lethal malignancy when innoculated into syngeneic hosts, but it can be rendered susceptible to immune attack if the host's immune system is suitably activated (Chen, et al. 1997 J. Immunol. 159, 351-359). […] MB49 tumor cells (1×10^6) were injected subcutaneously into syngeneic C57/B16 hosts. […] By day 10, all animals had evidence of initial tumor formation (palpable mass). By day 15, control animals were visibly ill and the experiment was terminated. Animals were sacrificed on day 11-15 for histologic examination.

[2] = test system: tryptophan transport system in MCSF-derived macrophages; experiment: [3H]tryptophan uptake in MCSF-derived macrophages with competing unlabeled amino acids; type: cell-based, human; details: for effectiveness as competitor for tryptophan uptake compared with phenylalanine: titration studies
Method: The graph compares fresh monocytes, MCSF-derived macrophages (day 7), and MCSF-derived macrophages activated for the preceding 24 hrs with IFNγ. All assays were performed in the presence of 140 mM NaCl. […] A logarithmic scale is used to permit comparison.
Macrophages were cultured for 7 days in MCSF and activated during the last 24 hrs with IFNγ.
This sodium-independent system was then characterized using cross-competition studies.

MCSF-derived macrophages [3] = experiment: Elimination kinetics of tryptophan in co-cultures of MCSF-derived macrophages and mitogen-activated T cells; type: cell-based, human; details: when tryptophan was not limiting
Method: MCSF-derived macrophages were cultured for 24 hrs with autologous T cells, with or without anti-CD3 mitogen. The medium was replaced with fresh medium, and supernatant from replicate cultures harvested at the times shown. […] Error bars (less than 10%) are omitted for clarity.
Depletion of tryptophan is rapid. Macrophages were co-cultured with T cells and mitogen for 24 hrs to allow up-regulation of the tryptophan-depletion pathway, then fresh medium was added and the kinetics of elimination measured. […] This rapid rate of tryptophan depletion could not be attributed to consumption by cellular metabolism.

IDO [4] = molecular target: T1, IDO (Homo sapiens, UniProt P14902); experiment: Macrophage-mediated suppression of T cell proliferation in co-cultures of MCSF-derived macrophages and T cells with anti-CD3; type: cell-based; parameters: endogenous in cells; host or cells: MCSF-derived human monocyte-derived macrophages co-cultured with T cells; details: 10x normal tryptophan
Method: Proliferation was measured after 72 hrs by thymidine incorporation. The level of background proliferation contributed by macrophages is indicated by the dotted line. In FIG. 4B, macrophages were seeded at both low density (5×10^4/well) and high density (2×10^5/well).
Target sequence in this assay (P14902 whole entry): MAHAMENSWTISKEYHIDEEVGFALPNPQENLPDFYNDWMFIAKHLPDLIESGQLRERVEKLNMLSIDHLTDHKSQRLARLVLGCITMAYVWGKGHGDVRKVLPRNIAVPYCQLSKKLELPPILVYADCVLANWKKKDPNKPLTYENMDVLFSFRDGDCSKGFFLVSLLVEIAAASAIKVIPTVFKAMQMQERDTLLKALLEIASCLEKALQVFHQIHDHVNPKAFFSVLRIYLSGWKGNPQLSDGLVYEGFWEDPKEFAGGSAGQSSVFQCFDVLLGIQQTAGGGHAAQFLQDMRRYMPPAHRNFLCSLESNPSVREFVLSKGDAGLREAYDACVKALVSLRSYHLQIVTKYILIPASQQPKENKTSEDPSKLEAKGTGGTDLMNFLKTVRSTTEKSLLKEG

T cells = experiment: T cell proliferation (thymidine incorporation) in co-culture conditioned medium with tryptophan titrated back; type: cell-based, human
Method: FIG. 1 is a graph of thymidine incorporation (cpm) by T cells in the presence of supplemental amino acids. […] Human monocytes were allowed to differentiate into macrophages then co-cultured with mitogen-activated T cells (anti-CD3). Fresh PBMC were then suspended in this medium and activated with additional anti-CD3. […] Control cultures received fresh medium. Proliferation was measured by 4 hr thymidine incorporation after 72 hrs. Error bars show SD.
Fresh lymphocytes were suspended in conditioned medium and activated with additional mitogen. Care was taken to exclude all traces of fresh medium.

MCSF-derived macrophages [5] = experiment: Induction of IDO activity (tryptophan degradation) in MCSF-derived macrophages by IFNγ with or without CD40L; type: cell-based, human
Description: MCSF-derived macrophages were activated for 24 hrs with various concentrations of recombinant IFNγ, in the presence or absence of recombinant CD40-L trimer. […] SD was less than 10%.
The response of MCSF-derived macrophages to IFNγ in the presence or absence of recombinant CD40L (prepared as a homo-trimer in order to signal via CD40 in soluble form, gift of Bill Fanslow, Immunex Corporation) was compared.

IDO [6] = molecular target: T1, IDO; parameters: host or cells: tumor xenografts in IFNγ-treated animals; details: IFNγ-treated animals; cited from earlier work
Target sequence in this assay (P14902 whole entry, species assumed): as the sequence (P14902 whole entry) above

[7] = group n = 7, pellets 0.9 mg/hr, 7-day release

## CC(n1cc(C[C@H](N)C(=O)O)c2ccccc21)n1cc(C[C@H](N)C(=O)O)c2ccccc21 [1-1′ ethylidenebis-[tryptophan]]
[1]
  autoimmune or adverse illness reported: eosinophilia-myalgia syndrome

## Cn1cc(C[C@H](N)C(=O)O)c2ccccc21 [1-methyl-tryptophan]
MB49 tumor cells; administration days 1-7
  continuation of responses after the period of inhibitor administration: 4 to 7 days
MB49 tumor cells; day 15
  histology (day 15): apoptosis, necrosis,
MB49 tumor cells; [7]
  complete responses: 1
  partial responses: 6
MB49 tumor cells; immunocompetent, syngeneic hosts
  tumor growth compared to vehicle control: significantly reduced tumor growth
MB49 tumor cells; mouse, in vivo
  performance status: normal
  visible metastases: none
MB49 tumor cells; residual tumor necrotic
  size of residual tumor: 1 cm (necrotic)

## NC1(C(=O)O)CC2CCC1C2 (centres unmarked) [BCH, 2-amino-2-norborane-carboxylic acid]
[2]; system L inhibited by 8 mM BCH
  total tryptophan transport still available: 30-50%
[2]
  effectiveness as competitor for tryptophan uptake compared with phenylalanine: even less effective competitors

## N[C@@H](Cc1c[nH]c2ccc(O)cc12)C(=O)O [L-5-hydroxytryptophan]
[1]
  autoimmune or adverse illness reported: high frequency of a scleroderma-like illness

## N[C@@H](Cc1ccc(O)cc1)C(=O)O [Tyrosine]
[2]
  effectiveness as competitor for tryptophan uptake compared with phenylalanine: even less effective competitors

## CC(C)C[C@H](N)C(=O)O [leucine]
[2]
  effectiveness as competitor for tryptophan uptake compared with phenylalanine: even less effective competitors

## N[C@@H](Cc1ccccc1)C(=O)O [phenylalanine]
[2]; 8 mM each, sodium-independent, FIG. 8B
  inhibition of tryptophan uptake by competing unlabeled amino acid: could not fully block

## N[C@@H](Cc1c[nH]c2ccccc12)C(=O)O [tryptophan]
MCSF-derived macrophages [3]
  initial rate of tryptophan elimination: up to 20,000 pmol/10^6 cells/hr
IDO [4]; high seeding density (2x10^5/well)
  reversal of suppression by supplemental tryptophan: remained able to suppress
IDO [4]; low seeding density (5x10^4/well)
  reversal of suppression by supplemental tryptophan: effectively reversed suppression
[1]
  autoimmune or adverse illness reported: multiple autoimmune disorders
T cells; Homo sapiens, T-cell, 72 h, read-out: half-maximal concentration for T cell proliferation
  EC50: ~500 nM
T cells; tryptophan in conditioned medium
  concentration sufficient to initiate low but readily detectable T cell proliferation: 50 nM

## IFNγ: recombinant interferon gamma, inducer of IDO
MCSF-derived macrophages [5]; in the presence of CD40L
  IFNγ concentration at which significant response occurred: ≥ 1 U/ml
MCSF-derived macrophages [5]; recombinant IFNγ alone, 24 hrs
  concentration required for maximal induction of tryptophan degradation: ≥ 100 U/ml

B1: CD40L: recombinant CD40L prepared as a homo-trimer to signal via CD40 in soluble form (protein, UniProt P29965 47-261, looked up)
extracellular domain: HRRLDKIEDERNLHEDFVFMKTIQRCNTGERSLSLLNCEEIKSQFEGFVKDIMLNKEETKKENSFEMQKGDQNPQIAAHVISEASSKTTSVLQWAEKGYYTMSNNLVTLENGKQLTVKRQGLYYIYAQVTFCSNREASSQAPFIASLCLKSPGRFERILLRAANTHSSAKPCGQQSIHLGGVFELQPGASVFVNVTDPSQVSHGTGFTSFGLLKL
modifications: extracellular domain soluble homo-trimer
notes: recombinant CD40L prepared as a homo-trimer to signal via CD40 in soluble form
MCSF-derived macrophages [5]; CD40L alone
  effect on enzyme activity: little effect
MCSF-derived macrophages [5]; CD40L combined with IFNγ
  shift of the dose-response curve of IFNγ: one to two orders of magnitude

B2: IFNγ: recombinant interferon gamma, inducer of IDO (protein, UniProt P01579 24-161, looked up)
Interferon gamma: QDPYVKEAENLKKYFNAGHSDVADNGTLFLGILKNWKEESDRKIMQSQIVSFYFKLFKNFKDDQSIQKSVETIKEDMNVKFFNSNKKKRDDFEKLTNYSVTDLNVQRKAIHELIQVMAELSPAAKTGKRKRSQMLFRG
IDO [6]
  reduction in tumor tryptophan compared to controls: approximately 80%

Source: patent publication US7879791B2 (Medical College of Georgia Research Institute, Inc., priority 1997, dated 2011)
